{"source": "paper PMC5613011", "about": "“Fenugreek Compound (N55) Lowers Plasma Glucose through the Enhancement of Response of Physiological Glucagon-like peptide-1” (Scientific Reports, 2017)", "key": {"[1]": {"system": "fasted mice", "experiment": "IPGTT, fasted mice (plasma glucose, glucose AUC0–120)", "format": "in vivo, Female C57BL/6 mice", "source_text": "All animal procedures were approved by the Institute of Biomedical Sciences Animal Care and Use Committee (Academia Sinica, Taiwan). The Experimental Animal Committee, Academia Sinica, Taiwan approved all animal experimental procedures. All animals were carefully looked after to ensure that their welfare were well looked after. Additionally, all the experimental procedures and the reagents used in this manuscript have been approved by The Ethic Committee, Academia Sinica. All methods were performed in accordance with the relevant guidelines and regulations by the Institute of Biomedical Sciences Animal Care and Use Committee (Academia Sinica, Taiwan) and The Ethic Committee (Academia Sinica, Taiwan). Female C57BL/6 mice (BioLAS CO, Yi-Lan Breeding Center, Taiwan) aged 8–12 weeks were housed on a 12-h light/12-h dark cycle and provided with food and water ad libitum. The mice were fed with the standard chow (PicoLab Rodent Diet 5053, LabDiet, St. Louis, MO, USA) diet which consisted of 13.2% fat, 24.7% protein, and 62.1% carbohydrates as a source of calories.\nAll experiments were performed at approximately 1 PM. For the fasted mice, standard chow was removed away at 9 AM on the day of the IPGTT, but were provided water ad libitum for 4 h prior to the beginning of the test. All the administered materials were dissolved in isotonic sodium chloride solution (0.9% sodium chloride) containing 5% ethanol. Vehicle, N55, GLP-1′, [Aib8, E22, E30]-GLP-1(7–36) amide, Ex-4 or Ex-9 alone or in combination were administered by i.p. injection 15 min before D-(+)-glucose (2 g/kg of body weight) i.p. administration. Blood samples were drawn from the tail vein right before glucose loading (time 0) and at 15, 30, 60, 90 and 120 min after glucose administration. Plasma glucose was monitored using a glucometer (Accu-Check Performa, Roche, Basel, Switzerland). Glucose AUC0–120 was calculated during the 120-min time interval from IPGTT results. Glucose AUC0–120 was obtained using the formula AUC0–120 = [15 × (G0 + G15)/2] + [15 × (G15 + G30)/2] + [30 × (G30 + G60)/2] + [30 × (G60 + G90)/2] + [30 × (G90 + G120)/2] where G0, G15, G30, G60, G90 and G120 were blood glucose level at each time point during IPGTT. The decrease in plasma glucose was calculated by subtracting the plasma glucose in the presence of indicated reagent from that in the absence of indicated reagent; ∆ Plasma Glucose (mmol/l) = [plasma glucose at 15 min point obtained in the absence of indicated reagent] − [plasma glucose at 15 min point obtained in the presence of indicated reagent]. The decreased in glucose AUC0–120 was expressed by subtracting the AUC0–120 in the presence of f indicated reagent rom that in the absence of indicated reagent. ∆ AUC0–120 (mmol/l x min) = [AUC0–120 in the absence of indicated reagent] − [AUC0–120 in the presence of indicated reagent].\n(§1) Values for each experimental group are presented as mean ± SEM. Statistics were performed using Student’s t-test and one-way analysis of variance (ANOVA). Significance levels shown in the figures are: * P < 0.05, ** P < 0.01 and *** P < 0.001 as well as ^# P < 0.05, ^## P < 0.01 and ^### P < 0.001. A P-value of less than 0.05 was considered significant. Student’s t-test that is used to compare the means of two groups and one-way ANOVA is used to compare the means of more than two groups. Five mice per group were used for the in vivo studies. The in vivo studies were performed at least twice. The in vitro assays were triplicates of three independent experiments."}, "[2]": {"system": "GLP-1R", "experiment": "BRET / real-time intracellular cAMP response assay, GLP-1R", "format": "cell-based", "source_text": "Figure 7 Hypoglycemic action of [Aib8, E22, E30]-GLP-1(7–36) amide was not affected by N55. (a) Sequence alignment of GLP-1(7–36) amide, Ex-4 and mutant peptide. G22 and A30 (purple alphabets) are non-homologous residues between GLP-1(7–36) amide and Ex-4. These residues in GLP-1(7–36) amide were replaced with E (red alphabets), the corresponding residues (blue alphabets) in Ex-4, to generate DPP4-resistant GLP-1 mutant peptide ([Aib8, E22, E30]-GLP-1(7–36) amide). Effect of N55 on cAMP responses to the titration of (b) [Aib8, E22, E30]-GLP-1(7–36) amide and GLP-1′. Values are means ± SEM of triplicate assays from three independent experiments. Dose effect of [Aib8, E22, E30]-GLP-1(7–36) amide on (c) plasma glucose levels and on (d) glucose AUC0–120. Dose effect of N55 on (e) the hypoglycemic response and on (f) glucose AUC0–120 of 16.2 nmol/kg of [Aib8, E22, E30]-GLP-1(7–36) amide. Indicated doses of [Aib8, E22, E30]-GLP-1(7–36) amide and N55 were i.p. administered to group of fasted mice (n = 5) 15 min before the glucose loading (2 g/kg) of the IPGTT. Values are mean ± SEM for groups of five mice. * P < 0.05, ** P < 0.01 and *** P < 0.001 were comparisons of indicated dose of [Aib8, E22, E30]-GLP-1(7–36) amide vs control (c,d). NS, not significant.\nThe real-time intracellular cAMP assay was performed as previously described.\nas §1"}, "[3]": {"system": "mice", "experiment": "Plasma insulin during IPGTT", "format": "in vivo, Female C57BL/6 mice", "source_text": "(§2) All animal procedures were approved by the Institute of Biomedical Sciences Animal Care and Use Committee (Academia Sinica, Taiwan). The Experimental Animal Committee, Academia Sinica, Taiwan approved all animal experimental procedures. All animals were carefully looked after to ensure that their welfare were well looked after. Additionally, all the experimental procedures and the reagents used in this manuscript have been approved by The Ethic Committee, Academia Sinica. […]\n(§3) All experiments were performed at approximately 1 PM. […] Plasma glucose was monitored using a glucometer (Accu-Check Performa, Roche, Basel, Switzerland). Glucose AUC0–120 was calculated during the 120-min time interval from IPGTT results. […] The decrease in plasma glucose was calculated by subtracting the plasma glucose in the presence of indicated reagent from that in the absence of indicated reagent; ∆ Plasma Glucose (mmol/l) = [plasma glucose at 15 min point obtained in the absence of indicated reagent] − [plasma glucose at 15 min point obtained in the presence of indicated reagent]. […]\nBlood samples were collected from the tail vein before any drug administration and at 15 and 60 min after i.p. glucose loading (time 0). […] Plasma insulin levels were determined by a mouse insulin enzyme-linked immunosorbent assay kit (10–1247–01, Mercodia, Sweden) according to the manufacturer’s protocols. […]"}, "[4]": {"system": "GLP-1R", "conditions": "cited from earlier work", "source_text": "Firstly, the hypoglycemic effect of N55 during IPGTT of non-fasted mice requires functional GLP-1R signaling. Secondly, although N55 could not affect the plasma glucose in fasted mice whose endogenous GLP-1 are relatively low (Fig. 2a). […] Thirdly, the hypoglycemic effect and potentiation of insulinotropic effect of GLP-1 required the functional s ... || (+ 1 further places)"}, "[5]": {"system": "non-fasted mice", "experiment": "IPGTT, non-fasted mice (plasma glucose, glucose AUC0–120)", "format": "in vivo, Female C57BL/6 mice", "conditions": "Ex-9 without N55 (1530 without Ex-9), mean, n = 5", "source_text": "as §2, with “Sinica. All methods were performed in accordance with the relevant guidelines and regulations by the Institute of Biomedical Sciences Animal Care and Use Committee (Academia Sinica, Taiwan) and The Ethic Committee (Academia Sinica, Taiwan).” for “Sinica.”\nas §3"}, "[6]": {"conditions": "Ex-9 with GLP-1′ 5.4 nmol/kg, with or without N55, n = 5"}}, "data": [{"substance": "HAibEGTFTSDVSSYLEEQAAKEFIEWLVKGR-NH2 [[Aib8, E22, E30]-GLP-1(7–36) amide, DPP4-resistant GLP-1 mutant peptide]", "values": [{"measurement": "glucose AUCs during IPGTT", "setting": "[1]; mutant peptide i.p., n = 5", "result": "decreased glucose AUCs"}, {"measurement": "plasma glucose during IPGTT", "setting": "[1]; mutant peptide i.p., n = 5", "result": "dose-dependently lowered the plasma glucose"}, {"measurement": "response to N55 (cAMP)", "setting": "[2]; titration of peptide with N55, triplicate assays from three independent experiments", "result": "failed to respond to N55"}, {"measurement": "potency in stimulating GLP-1R (cAMP)", "setting": "[2]; titration, compared with GLP-1′, triplicate assays from three independent experiments", "result": "displayed comparable potency in stimulating GLP-1R"}]}, {"substance": "HAibEGTFTSDVSSYLEGQAAKEFIAWLVKGR-NH2 [GLP-1′, [Aib8]-GLP-1(7–36) amide, DPP4-resistant GLP-1 peptide]", "values": [{"measurement": "glucose tolerance", "setting": "[1]; GLP-1′ 0.2 nmol/kg alone i.p., n = 5", "result": "did not affect the glucose tolerance at all"}, {"measurement": "contribution to improvement of glucose excursion in presence of Ex-9", "setting": "[1]; GLP-1′ 5.4 nmol/kg + Ex-9, without N55", "result": "non-detectable level"}, {"measurement": "15-min plasma glucose level", "setting": "[1]; GLP-1′ 5.4 nmol/kg i.p. without N55, mean, n = 5", "result": 18, "unit": "mmol/L"}, {"measurement": "glucose excursion (AUC0–120)", "setting": "[1]; GLP-1′ 5.4 nmol/kg i.p., n = 5", "result": "significantly improved"}, {"measurement": "glucose tolerance", "setting": "[1]; GLP-1′ 5.4 nmol/kg i.p., n = 5", "result": "significantly improved the glucose tolerance"}, {"measurement": "contribution of GLP-1′ to improvement of glucose excursion (AUC0–120 with Ex-9 minus without Ex-9)", "setting": "[1]; GLP-1′ 5.4 nmol/kg without N55", "result": 250, "unit": "mmol/l x min glucose"}, {"measurement": "glucose AUC0–120", "setting": "[1]; GLP-1′ 5.4 nmol/kg without N55, without Ex-9", "result": 1270, "unit": "mmol/l x min glucose"}, {"measurement": "15-min plasma insulin level", "setting": "[3]; fasted mice, GLP-1′ without N55, 15 min after glucose loading, mouse insulin ELISA, mean, n = 5", "result": 1.44, "unit": "µg/L"}]}, {"substance": "[E22, E30] GLP-1 (7–36) amide", "values": [{"measurement": "activation of receptor by point mutant of GLP-1", "setting": "[2]; point mutant without Aib8", "result": "retained ability to activate the receptor"}, {"measurement": "response of point mutant of GLP-1 to N55 in vitro", "setting": "[2]; point mutant without Aib8", "result": "not responsive to the enhancement of N55 in vitro"}]}, {"substance": "exendin-4 [Ex-4]", "values": [{"measurement": "glucose AUC0–120", "setting": "[1]; Ex-4 5.4 nmol/kg i.p. (decreased from 1500), mean, n = 5", "result": 780, "unit": "mmol/l x min glucose"}, {"measurement": "decrease in glucose level, dose dependence", "setting": "[1]; Ex-4 i.p., n = 5", "result": "depended on the dose of Ex-4"}, {"measurement": "glucose AUCs, dose dependence", "setting": "[1]; Ex-4 i.p., n = 5", "result": "decreased as dose of Ex-4 increased"}, {"measurement": "glucose tolerance", "setting": "[1]; Ex-4 i.p., n = 5", "result": "greatly improved the glucose tolerance"}, {"measurement": "stimulation of GLP-1R in vitro by Ex-4", "setting": "[4]", "result": "stimulated GLP-1R in vitro"}]}, {"substance": "exendin-(9–39) [Ex-9]", "values": [{"measurement": "glucose AUC0–120", "setting": "[5]", "result": 2070, "unit": "mmol/l x min glucose"}, {"measurement": "effect of Ex-9 on GLP-1′ glucose lowering and N55 enhancement", "setting": "[1]; [6]", "result": "completely eliminated the glucose lowering effect of GLP-1′ and the enhancement effect of N55"}, {"measurement": "glucose AUC0–120 in all Ex-9 treated mice", "setting": "[1]; [6]", "result": "~1520", "unit": "mmol/l x min glucose"}, {"measurement": "plasma glucose level in Ex-9 treated mice", "setting": "[1]; [6]", "result": 22, "unit": "mmol/L"}, {"measurement": "plasma insulin level with Ex-9", "setting": "[3]; 15 and 60 min after glucose loading, Ex-9 treated non-fasted and fasted mice", "result": "0.36 to 0.65", "unit": "µg/L"}]}]}
